Patent US20200360400A1, “COMPOSITIONS AND METHODS FOR THE TREATMENT OF ADDICTION, PSYCHIATRIC DISORDERS, AND NEURODEGENERATIVE DISEASE” (Embera NeuroTherapeutics, Inc., priority 2017, published 2020)
Entries after “also recorded” stand apart in the source; their conditions may differ.

Columns and labels:
[1] = Cocaine interaction crossover study: pharmacokinetics
Description: This was a double-blind, placebo-controlled, randomized, crossover study of non-treatment-seeking subjects with cocaine use disorder (CUD). […] On the last day of each dosing week, subjects received 40 mg IV cocaine. Primary outcomes were safety and pharmacokinetics (PK).
• Subjects: Non-treatment seeking subjects with cocaine use disorder, ages 21-55 • Design: Single center, randomized, double-blind (DB), placebo-controlled (PLB), 2-period crossover design • Dosing: • One week of dosing with MET/OX (EMB-001) and one week of placebo, separated by one-week washout (randomized, DB, counterbalanced) • 40 mg IV cocaine & saline infusions on 7th day of dosing of MET/OX and placebo • Dose of MET/OX: 720 mg MET & 24 mg OX, BID • Primary Objective: Safety of MET/OX when co-administered with cocaine • Secondary Objectives: • Effects of MET/OX on PK of cocaine • Effects of cocaine on PK of MET/OX • Exploratory Objective: • Effects of MET/OX on measures of craving and subjective effects produced by cocaine

[2] = system: adult male Wistar rats; test: Intravenous cocaine self-administration under a multiple, alternating schedule of food reinforcement and cocaine self-administration; type: in vivo, rat
Description: Adult male Wistar rats were trained under a multiple, alternating schedule of cocaine and food self-administration. This schedule consisted of alternating periods of cocaine access and food reinforcement. In some instances, as described further below, three doses of cocaine (0.125, 0.25, or 0.50 mg/kg/infusion) were tested. Rats were also periodically trained with saline substitution (cocaine extinction) and food extinction during the same session.
In our model, rats were exposed to alternating 15-minute periods of access to cocaine self-administration and food reinforcement. Food was used to control for potential nonspecific, ataxis effects of the drugs and combinations.
More specifically, adult male Wistar rats were implanted with chronic jugular catheters. Following recovery from surgery, the rats were trained to respond under a multiple, alternating schedule of food reinforcement and cocaine self-administration. Food-maintained responding was used to control for the non-specific motor effects of the various treatments. During the food component of the schedule, the stimulus light located above the food response lever was illuminated to indicate the availability of food reinforcement. […] A 25-second timeout followed the delivery of each food pellet. During this timeout, the stimulus light was darkened and responses on the food lever were counted but had no scheduled consequences. Responding on the other (cocaine) lever during the food component also had no scheduled consequences. […] Following 15 minutes of access to food, all stimulus lights in the chamber were darkened for a 1-minute timeout. Following the timeout, the stimulus light above the cocaine response lever was illuminated to indicate the availability of cocaine (0.125, 0.25, or 0.5 mg/kg/infusion). […] A 20-second timeout period followed each infusion. […] After 15 minutes of access to cocaine and a 1-minute timeout, the rats were again allowed 15 minutes access to the food component of the schedule. Access to food and cocaine alternated in this manner every 15 minutes during the two hour behavioral sessions so that each rat was exposed to food and cocaine for four 15-minute periods each. Each behavioral session began with 15 minutes access to either food or cocaine, and this alternated daily. Stable baselines of responding were established when the total number of cocaine and food presentations, as well as the number of presentations during each of the four exposures each session, varied less than 10% for three consecutive sessions. At least three different doses of cocaine (e.g., 0.125, 0.25, and 0.5 mg/kg/infusion) were tested. Rats were first trained to self-administer 0.25 mg/kg/infusion, our standard dose of cocaine. When responding stabilized, the dose was changed to 0.125 or 0.5 mg/kg/infusion as appropriate.
Once stable baselines of responding were obtained, dose-response curves for the various compounds were individually generated for each rat. Rats were treated with each dose at least twice with a minimum of two days of baseline cocaine self-administration interspersed between each test. Each group of rats was tested with only two of the test compounds to minimize potential carryover effects. […] This rationale guided the selection of the doses of each of the compounds in the combination studies. Each experimental group consisted of between 8 and 10 rats.

[3] = system: adult male Wistar rats; test: Cue-induced reinstatement of extinguished cocaine seeking; type: in vivo, rat; conditions: for reinstatement of extinguished cocaine seeking: pretreatment with the drug alone, general statement
Description: The experiments described herein were designed to investigate whether or not drug combinations identified as effective in reducing cocaine self-administration would also block the ability of conditioned cues to reinstate extinguished cocaine-seeking behavior. Adult male Wistar rats were implanted with chronic jugular catheters and trained to self-administer cocaine (0.25 mg/kg/infusion) by pressing one of the response levers in the experimental chamber (i.e., the “active” or “cocaine” lever) under a fixed-ratio four (FR4) schedule of reinforcement during daily 2-hour sessions conducted 5 days per week. At the start of each session, both levers were extended into the chamber and the stimulus light above the active lever was illuminated to indicate the availability of cocaine. […] A 20-second timeout period followed each infusion. The stimulus light above the active lever and the house light and tone compound stimulus were extinguished during the timeout period, and the light above the active lever was illuminated once the timeout ended. When responding on the active lever varied less than 20% for two consecutive days, the response requirement was increased to FR2. When similar stability was observed under the FR2 schedule or reinforcement, the response requirement was increased to the final ratio of four. The criteria for stable responding under the FR4 schedule of reinforcement was a minimum of 10 days of exposure to this schedule that concluded with at least three consecutive days when responding varied by less than 10%. […] Once stable cocaine self-administration was observed, rats were exposed to extinction; the rats were placed into the behavioral chambers, but responding on the “cocaine” (active) lever produced no programmed consequences. Extinction training continued until responding decreased to less than 20% of baseline self-administration. Then reinstatement testing commended. The rats were placed into the experimental chambers, both response levers were extended into the chamber, and the stimulus light above the “active” lever was illuminated as during self-administration training. […] Responding on the “active” lever during reinstatement testing was taken as an index of cocaine-seeking behavior. Each experimental group consisted of 8 to 10 rats.

[4] = rat, in vivo
Description: Adult male Wistar rats (90 to 120 days old) were implanted with chronic, indwelling jugular catheters and were allowed to recover from surgery. […] Thirty minutes following the drug combination or vehicle injection, the rats received intravenous injections of cocaine (0.25 mg/kg/infusion) every 2 minutes for 1 hour. After the final injection of cocaine, blood was collected from the catheter for the analysis of cocaine and its metabolites ecgonine methyl ester and benzoylecgonine. […] All drug concentrations were determined using GCMS procedures.

[5] = system: male Wistar rats; test: Cocaine self-administration following adrenalectomy, with plasma CORT and ACTH; type: in vivo, rat
Description: Subjects: Male Wistar rats were housed in an AALAC-approved animal care facility and maintained at 85-90% of their free-feeding body weights. These rats were on a reversed 12-hour light, 12-hour dark cycle from the beginning of the experimental procedures.
Catheter surgery: A chronic indwelling jugular catheter (0.012 in i.d.×0.025 in o.d., silicone tubing) was implanted in each rat under pentobarbital anesthesia (50 mg/kg ip) with methyl atropine nitrate pretreatment (10 mg/kg ip). The animals were injected with sterile penicillin G procaine suspension (75,000 units, im) immediately before surgery and allowed 5-7 days to recover.
Adrenalectomy surgery: Animals were anesthetized with pentobarbital (50 mg/kg ip) with methyl atropine nitrate pretreatment (10 mg/kg ip). The adrenal glands were located through an incision and removed. The animals were injected with sterile penicillin G procaine suspension (75,000 units, im) and allowed to recover from surgery for 7 days. After ADX, the rats received drinking water containing 0.9% saline and 1.0% sucrose. Animals in the SHAM group received the same surgery except that the adrenal glands were not removed. They continued to receive tap water to drink.
Equipment: Sound-attenuating operant conditioning chambers (Med-Associates, Inc.) were equipped with two response levers and a stimulus light located directly above each lever. A food pellet dispenser was located between the levers. […] An IBM-compatible personal computer and interface system was used to program the procedure and collect the experimental data.
Alternating Schedule of Cocaine and Food Reinforcement: Following recovery from catheter surgery, the rats were trained to respond under a multiple, alternating schedule of food reinforcement and cocaine self-administration. […]
Hormone Measurements: Blood was collected via the implanted catheters at the end of the behavioral test sessions for the measurement of plasma CORT and adrenocorticotropin releasing hormone (ACTH). […] Plasma CORT and ACTH (ng/ml) were subsequently determined by radioimmunoassay.

[6] = system: male Wistar rats; test: Forced Swim Test (FST), animal model of depression
[7] = smoking cessation (Nides et al. 2006); cited from earlier work
[8] = system: Wistar-derived male rats; test: Intravenous nicotine self-administration, fixed-ratio schedule (FR1, TO-20 s); type: in vivo, rat
Description: Animals: Wistar-derived male rats (250-300 g) were purchased from Harlan Laboratories (Livermore, Calif.), housed in groups of two, and maintained in a temperature-controlled environment on a 12 h:12 h light cycle. Before testing, animals were provided free access to food and water during a one-week habituation period, and were handled daily for several days to desensitize them to handling stress. Each rat included in the data analysis received all treatments in order to obtain reliable estimates of drug effects and decrease the impact of inter-animal variability. Animals were handled, housed, and sacrificed in accord with the current NIH guidelines and all applicable local, state, and federal regulations and guidelines.
Varenicline-HCl (Ontario Chemicals), at 1 mg/kg (expressed as free base), was used as a positive control and administered subcutaneously. Nicotine hydrogen tartrate (Sigma Aldrich) was dissolved in isotonic saline at 0.3 mg/mL (expressed as free base), adjusted to pH 7.0, and diluted to deliver 0.03 mg/kg/infusion. All test compounds were administered 30 minutes prior to nicotine self-administration sessions in a volume of 1 mL/kg.
Apparatus: Food training and nicotine self-administration took place in 8 standard Coulbourn™ operant conditioning chambers. Each chamber was housed in a sound-attenuating chamber. […]

[9] = after 40 mg IV cocaine, + EMB-001
[10] = after 40 mg IV cocaine, + Placebo
[11] = high dose of the drug alone, ip
[12] = low, ineffective dose of the drug alone, ip
[13] = pretreatment with the drug alone, general statement

CN1[C@H]2CC[C@@H]1[C@@H](C(=O)O)[C@@H](OC(=O)c1ccccc1)C2 [Benzoylecgonine, benzoylecgonine]
AUC 0-∞ [1, 9]: 3080 ± 689 ng·h/mL
Cmax [1, 9]: 198 ± 55 ng/mL
AUC 0-∞ [1, 10]: 2970 ± 720 ng·h/mL
Cmax [1, 10]: 199 ± 45 ng/mL

CCCCN(CC)c1nc(C)nc2c1c(C)cn2-c1c(C)cc(C)cc1C [CP-154,526]
cocaine self-administration (number of cocaine infusions) [2, 11]: reduced cocaine self-administration
food-maintained responding [2, 11]: without affecting food-maintained responding
cocaine self-administration (number of cocaine infusions) [2, 12]: did not significantly affect
food-maintained responding [2, 12]: did not significantly affect
cocaine self-administration [2, 13]: decrease
reinstatement of extinguished cocaine seeking [3]: decrease

COC(=O)[C@@H]1[C@H]2CC[C@@H](C[C@@H]1O)N2C [Ecgonine Methyl Ester, ecgonine methyl ester]
AUC 0-∞ [1, 9]: 244 ± 50 ng·h/mL
Cmax [1, 9]: 20.5 ± 3.7 ng/mL
AUC 0-∞ [1, 10]: 234 ± 45 ng·h/mL
Cmax [1, 10]: 21.5 ± 3.7 ng/mL

Cc1nnc2n1-c1ccc(Cl)cc1C(c1ccccc1)=NC2 [alprazolam]
cocaine self-administration (number of cocaine infusions) [2, 11]: reduced cocaine self-administration
food-maintained responding [2, 11]: without affecting food-maintained responding
cocaine self-administration (number of cocaine infusions) [2, 12]: did not significantly affect
food-maintained responding [2, 12]: did not significantly affect
cocaine self-administration [2, 13]: decrease
reinstatement of extinguished cocaine seeking [3]: decrease

CC(=O)N1CCN(c2ccc(OCC3COC(Cn4ccnc4)(c4ccc(Cl)cc4Cl)O3)cc2)CC1 (stereo not drawn) [ketoconazole]
minimally effective dose (reduces cocaine self-administration by at least 50% without affecting food-maintained responding) ([2]; drug alone): 25 mg/kg
cocaine self-administration (number of cocaine infusions) [2, 12]: no effect; also recorded: did not significantly affect
food-maintained responding [2, 12]: no effect; also recorded: did not significantly affect
cocaine self-administration [2, 13]: decrease
reinstatement of extinguished cocaine seeking [3]: decrease

CC(C)(c1cccnc1)C(O)c1cccnc1 (stereo not drawn) [metyrapol]
food-maintained responding ([2]; 25, 50, 100 and 150 mg/kg ip 30 min before): not significantly affected except at the highest doses
cocaine self-administration ([2]; 25, 50, 100 and 150 mg/kg ip 30 min before, cocaine 0.125, 0.25, 0.5 mg/kg/infusion): dose dependently decreased
AUC 0-∞ ([1]; human, in vivo): 5480 ± 4840 ng·h/mL
Cmax ([1]; human, in vivo): 1850 ± 1570 ng/mL

CC(C)(C(=O)c1cccnc1)c1cccnc1 [metyrapone]
cocaine self-administration (number of cocaine infusions) [2, 11]: reduced cocaine self-administration
food-maintained responding [2, 11]: without affecting food-maintained responding
cocaine self-administration (number of cocaine infusions) [2, 12]: did not significantly affect
food-maintained responding [2, 12]: did not significantly affect
plasma corticosterone ([2]; pretreatment with the drug alone): significant dose-related decreases
cocaine self-administration [2, 13]: decrease; also recorded: significant dose-related decreases
AUC 0-∞ ([1]; human, in vivo): 900 ± 492 ng·h/mL
Cmax ([1]; human, in vivo): 429 ± 234 ng/mL
plasma concentration in the presence of cocaine [4]: did not affect
influence on plasma concentration of the other drug ([4]; ip): did not influence
blocking cocaine self-administration following adrenalectomy compared to pre-adrenalectomy values ([5]; MET 50, OX 5, OX 10 mg/kg and combinations): as effective, and possibly even more effective
plasma ACTH ([5]; before adrenalectomy): not changed
plasma corticosterone ([5]; before adrenalectomy): not changed
immobility in the FST ([6]; acute and chronic administration, alone and in combination, oxazepam 5 or 10, metyrapone 25 or 50 mg/kg): effective in reducing immobility
immobility time ([6]; chronic, metyrapone 50 mg/kg alone (Met50 group)): showed a lessening of immobility time
group means of immobility time relative to vehicle (tolerance) ([6]; chronically treated groups that received only Ox or Met): equal to or exceeded the vehicle
cue-induced reinstatement (responding on the active lever) ([3]; chronic, 50 mg/kg, ip, once per day for 14 days): reduced cocaine seeking to levels seen when only saline was delivered
reinstatement of extinguished cocaine seeking [3]: decrease

NCc1cc(=O)[nH]o1 [muscimol]
cocaine self-administration (number of cocaine infusions) [2, 11]: reduced cocaine self-administration
food-maintained responding [2, 11]: without affecting food-maintained responding
cocaine self-administration (number of cocaine infusions) [2, 12]: did not significantly affect
food-maintained responding [2, 12]: did not significantly affect

c1cnc2cc3c(cc2n1)[C@@H]1CNC[C@H]3C1 [varenicline]
quit rates after one year [7]: 14%
nicotine infusions over the 1-hour test session ([8]; 1 mg/kg sc, reduced from 15.4±1.0): 7.7±1.2
reduction of nicotine self-administration, varenicline compared with the metyrapone:oxazepam combination ([8]; fixed-ratio schedule): comparable to those seen with the lowest dose of the combination
